{"source": "paper PMC11532980", "about": "“Solvation free energy in governing equations for DNA hybridization, protein–ligand binding, and protein folding” (FEBS Open Bio, 2024)", "target": "T1, ribonuclease A (RNase A) (Bos taurus, UniProt P61823)", "T1 construct": "gene RNASE1; native enzyme from bovine pancreas, commercial; mature secreted protein (signal peptide removed), no tag", "T1 sequence (P61823 27-150)": "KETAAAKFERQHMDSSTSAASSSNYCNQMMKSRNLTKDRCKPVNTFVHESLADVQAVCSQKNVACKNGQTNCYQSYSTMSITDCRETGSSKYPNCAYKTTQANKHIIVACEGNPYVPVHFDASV", "assay": "isothermal titration calorimetry", "assay_type": "binding", "conditions": "25 mM Bis-Tris, 25 mM KCl, pH 6.0, 25 °C; K per RNase A concentration (five concentrations, up to 0.6 mM); ligand from disodium salt; y-intercept of −RTlnK versus complex concentration (extrapolated t)"}
{"smiles": "O=c1ccn([C@@H]2O[C@H](CO)[C@@H](OP(=O)(O)O)[C@H]2O)c(=O)[nH]1", "note": "[3′‐UMP]", "values": [{"measurement": "ΔG°", "value": "-6.46 ± 0.03", "unit": "kcal/mol"}]}
